# Target: cruzain (Trypanosoma cruzi, UniProt P25779);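 for Cruzain 0’ Inhibition: at 5 µM compound concentration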;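 for Cruzain 10’ Inhibition: at 5 µM compound concentration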
# Test: biochemical
# Conditions: 0’ (pre-incubation time); sheet "Screening results"
# How it was run: (§1)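 Recombinant enzymes assayed by Z-Phe-Arg-AMC cleavage at 25 °C, fluorescence 340/440 nm over 5–7 min, with 10 min or no enzyme–compound preincubation.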
# Sequence of cruzain (P25779 123-337 limits assumed): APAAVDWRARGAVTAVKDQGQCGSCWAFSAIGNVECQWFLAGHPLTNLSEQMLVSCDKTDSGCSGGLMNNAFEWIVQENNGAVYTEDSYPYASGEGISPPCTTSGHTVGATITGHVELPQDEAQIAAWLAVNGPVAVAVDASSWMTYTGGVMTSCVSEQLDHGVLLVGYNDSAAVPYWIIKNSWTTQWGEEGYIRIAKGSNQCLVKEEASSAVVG
row,Structure (SMILES),Cruzain 0’ Inhibition [%]
1,Cc1cnc(N2CCN[C@@H](Cc3ccccc3)C2)nc1Oc1ccc(-n2ccnc2)cc1 [MMV687765],4.4
2,CC1(C)Cc2c(c(N3CCOCC3)nc3snc(Br)c23)CO1 [MMV687794],8
3,C[C@H]1COc2c(N3CCN(C)CC3)c(F)cc3c(=O)c(C(=O)O)cn1c23 [MMV687798],4.7
4,O=C(Nc1ccc(C(F)(F)F)c(C(F)(F)F)c1)c1cc(Cl)ccc1O [MMV687807],-0.3
5,O=C1O[C@@H](COc2ccon2)CN1c1cc(F)c(C2=CCN(Cc3ccccc3)CC2)c(F)c1 [MMV687813],2.7
6,CCc1ccc(S(=O)(=O)Nc2cc(CN3CCN(CCC(C)C)CC3)ccc2C)cc1 [MMV688124],-1.8
7,CCCc1ccc(S(=O)(=O)Nc2ccc(CN3CCN(CC4CC4)CC3)cc2)cc1 [MMV688125],4.4
8,c1ccc(Oc2ccc(-c3cncc(-c4ccc5[nH]ccc5c4)n3)cc2)cc1 [MMV688178],-6
9,Cc1nn(C)c(C)c1NS(=O)(=O)c1c(Cl)cc(-c2ccnc(N3CCNCC3)c2)cc1Cl [MMV688180],-4
10,C[C@]1(COc2ccc(N3CCC(Oc4ccc(OC(F)(F)F)cc4)CC3)cc2)Cn2cc([N+](=O)[O-])nc2O1 [MMV688262],-0.1
11,COc1ccc(-c2cnc3cnc(-c4cccc(OC(C)C)c4)cn23)cc1 [MMV688270],-4
12,O=C(CN1CCOCC1)Nc1ccc2ncnc(Nc3ccc(OCc4cccc(F)c4)c(Cl)c3)c2c1 [MMV688274],5.7
13,CC1=Nc2ccc(Cl)cc2C(O)(c2ccc(C)cc2)N1CCN1CCCCC1 (stereo not drawn) [MMV688279],-4.5
14,COc1ccc(-c2nnc3ccc(-c4cccc(C(C)C)c4)cn23)cc1OC [MMV688313],-16
15,Nc1nc(N)c2c3c(sc2n1)CN(Cc1ccccc1)CC3 [MMV688345],3.6

# Same assay, conditions: 10’ (pre-incubation time); sheet "Screening results"
row,Structure (SMILES),Cruzain 10’ Inhibition [%]
1,Cc1cnc(N2CCN[C@@H](Cc3ccccc3)C2)nc1Oc1ccc(-n2ccnc2)cc1 [MMV687765],13
2,CC1(C)Cc2c(c(N3CCOCC3)nc3snc(Br)c23)CO1 [MMV687794],27
3,C[C@H]1COc2c(N3CCN(C)CC3)c(F)cc3c(=O)c(C(=O)O)cn1c23 [MMV687798],6
4,O=C(Nc1ccc(C(F)(F)F)c(C(F)(F)F)c1)c1cc(Cl)ccc1O [MMV687807],6
5,O=C1O[C@@H](COc2ccon2)CN1c1cc(F)c(C2=CCN(Cc3ccccc3)CC2)c(F)c1 [MMV687813],23
6,CCc1ccc(S(=O)(=O)Nc2cc(CN3CCN(CCC(C)C)CC3)ccc2C)cc1 [MMV688124],3
7,CCCc1ccc(S(=O)(=O)Nc2ccc(CN3CCN(CC4CC4)CC3)cc2)cc1 [MMV688125],9
8,c1ccc(Oc2ccc(-c3cncc(-c4ccc5[nH]ccc5c4)n3)cc2)cc1 [MMV688178],-6
9,Cc1nn(C)c(C)c1NS(=O)(=O)c1c(Cl)cc(-c2ccnc(N3CCNCC3)c2)cc1Cl [MMV688180],10
10,C[C@]1(COc2ccc(N3CCC(Oc4ccc(OC(F)(F)F)cc4)CC3)cc2)Cn2cc([N+](=O)[O-])nc2O1 [MMV688262],-0.4
11,COc1ccc(-c2cnc3cnc(-c4cccc(OC(C)C)c4)cn23)cc1 [MMV688270],5
12,O=C(CN1CCOCC1)Nc1ccc2ncnc(Nc3ccc(OCc4cccc(F)c4)c(Cl)c3)c2c1 [MMV688274],2.4
13,CC1=Nc2ccc(Cl)cc2C(O)(c2ccc(C)cc2)N1CCN1CCCCC1 (stereo not drawn) [MMV688279],0.1
14,COc1ccc(-c2nnc3ccc(-c4cccc(C(C)C)c4)cn23)cc1OC [MMV688313],-10
15,Nc1nc(N)c2c3c(sc2n1)CN(Cc1ccccc1)CC3 [MMV688345],16

# Same assay, conditions: read-out: Cruzain 0’ Inhibition, 0’ (pre-incubation time); sheet "Screening results"
row,Structure (SMILES),inhibition at 5 µM [%]
1,N=C(N)Nc1ccc(-c2ccc(-c3ccc(NC(=N)N)c(Cl)c3)o2)cc1Cl [MMV688271],83

# Same assay, conditions: read-out: Cruzain 10’ Inhibition, 10’ (pre-incubation time); sheet "Screening results"
row,Structure (SMILES),inhibition at 5 µM [%]
1,N=C(N)Nc1ccc(-c2ccc(-c3ccc(NC(=N)N)c(Cl)c3)o2)cc1Cl [MMV688271],50

# Same assay, conditions: read-out: Inhibition at 5 µM (Mean ± SEM %) Cruzain 0′, 5 µM, no pre-incubation, initial screening
row,Structure (SMILES),inhibition at 5 µM [%]
1,N=C(N)Nc1ccc(-c2ccc(-c3ccc(NC(=N)N)c(Cl)c3)o2)cc1Cl [MMV688271],83 ± 10

# Same assay, conditions: read-out: Inhibition at 5 µM (Mean ± SEM %) Cruzain 10′ inc, 5 µM, 10′ pre-incubation, initial screening
row,Structure (SMILES),inhibition at 5 µM [%]
1,N=C(N)Nc1ccc(-c2ccc(-c3ccc(NC(=N)N)c(Cl)c3)o2)cc1Cl [MMV688271],50 ± 4

# Same assay, conditions: read-out: Inhibition of cruzain or TbrCatL (either enzyme) in the initial screening, 5 µM; either cruzain or TbrCatL, with or without pre-incubation
row,Structure (SMILES),inhibition at 5 µM [%]
1,N=C(N)Nc1ccc(-c2ccc(-c3ccc(NC(=N)N)c(Cl)c3)o2)cc1Cl [MMV688271],≥ 60

# Target: T1, TbrCatL (Trypanosoma brucei rhodesiense, UniProt Q95PM0)
# T1 construct: Conor Caffrey (University of California San Diego)
# Test: TbrCatL enzymatic inhibition assay (cleavage of fluorogenic substrate Z-FR-AMC);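 for TbrCatL 0’ Inhibition: at 5 µM compound concentration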;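 for TbrCatL 10’ Inhibition: at 5 µM compound concentration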
# Type: biochemical
# Conditions: 0’ (pre-incubation time); sheet "Screening results"
# How it was run: as §1
# T1 sequence (Q95PM0 entry or part of it): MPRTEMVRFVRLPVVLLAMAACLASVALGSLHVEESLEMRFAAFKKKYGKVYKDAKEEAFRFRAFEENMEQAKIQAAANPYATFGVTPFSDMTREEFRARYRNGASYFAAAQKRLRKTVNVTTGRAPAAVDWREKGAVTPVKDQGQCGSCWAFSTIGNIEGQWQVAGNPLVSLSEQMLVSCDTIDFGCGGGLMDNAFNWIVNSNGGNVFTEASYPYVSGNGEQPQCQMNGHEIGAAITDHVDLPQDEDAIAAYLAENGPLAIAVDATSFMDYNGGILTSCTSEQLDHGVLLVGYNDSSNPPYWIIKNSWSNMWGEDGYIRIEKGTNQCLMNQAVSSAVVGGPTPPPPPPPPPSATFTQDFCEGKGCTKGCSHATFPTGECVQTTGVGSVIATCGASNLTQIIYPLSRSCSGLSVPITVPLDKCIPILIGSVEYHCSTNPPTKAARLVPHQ
row,Structure (SMILES),TbrCatL 0’ Inhibition [%]
1,Cc1cnc(N2CCN[C@@H](Cc3ccccc3)C2)nc1Oc1ccc(-n2ccnc2)cc1 [MMV687765],5
2,CC1(C)Cc2c(c(N3CCOCC3)nc3snc(Br)c23)CO1 [MMV687794],4.7
3,C[C@H]1COc2c(N3CCN(C)CC3)c(F)cc3c(=O)c(C(=O)O)cn1c23 [MMV687798],-4.6
4,O=C(Nc1ccc(C(F)(F)F)c(C(F)(F)F)c1)c1cc(Cl)ccc1O [MMV687807],-4
5,O=C1O[C@@H](COc2ccon2)CN1c1cc(F)c(C2=CCN(Cc3ccccc3)CC2)c(F)c1 [MMV687813],5.3
6,CCc1ccc(S(=O)(=O)Nc2cc(CN3CCN(CCC(C)C)CC3)ccc2C)cc1 [MMV688124],-3.3
7,CCCc1ccc(S(=O)(=O)Nc2ccc(CN3CCN(CC4CC4)CC3)cc2)cc1 [MMV688125],-2.3
8,c1ccc(Oc2ccc(-c3cncc(-c4ccc5[nH]ccc5c4)n3)cc2)cc1 [MMV688178],-10
9,Cc1nn(C)c(C)c1NS(=O)(=O)c1c(Cl)cc(-c2ccnc(N3CCNCC3)c2)cc1Cl [MMV688180],-7
10,C[C@]1(COc2ccc(N3CCC(Oc4ccc(OC(F)(F)F)cc4)CC3)cc2)Cn2cc([N+](=O)[O-])nc2O1 [MMV688262],0.7
11,COc1ccc(-c2cnc3cnc(-c4cccc(OC(C)C)c4)cn23)cc1 [MMV688270],-8
12,O=C(CN1CCOCC1)Nc1ccc2ncnc(Nc3ccc(OCc4cccc(F)c4)c(Cl)c3)c2c1 [MMV688274],13
13,CC1=Nc2ccc(Cl)cc2C(O)(c2ccc(C)cc2)N1CCN1CCCCC1 (stereo not drawn) [MMV688279],-3
14,COc1ccc(-c2nnc3ccc(-c4cccc(C(C)C)c4)cn23)cc1OC [MMV688313],-19
15,Nc1nc(N)c2c3c(sc2n1)CN(Cc1ccccc1)CC3 [MMV688345],-1

# Same assay, conditions: 10’ (pre-incubation time); sheet "Screening results"
row,Structure (SMILES),TbrCatL 10’ Inhibition [%]
1,Cc1cnc(N2CCN[C@@H](Cc3ccccc3)C2)nc1Oc1ccc(-n2ccnc2)cc1 [MMV687765],8.5
2,CC1(C)Cc2c(c(N3CCOCC3)nc3snc(Br)c23)CO1 [MMV687794],25
3,C[C@H]1COc2c(N3CCN(C)CC3)c(F)cc3c(=O)c(C(=O)O)cn1c23 [MMV687798],-1.6
4,O=C(Nc1ccc(C(F)(F)F)c(C(F)(F)F)c1)c1cc(Cl)ccc1O [MMV687807],-5
5,O=C1O[C@@H](COc2ccon2)CN1c1cc(F)c(C2=CCN(Cc3ccccc3)CC2)c(F)c1 [MMV687813],-1
6,CCc1ccc(S(=O)(=O)Nc2cc(CN3CCN(CCC(C)C)CC3)ccc2C)cc1 [MMV688124],1
7,CCCc1ccc(S(=O)(=O)Nc2ccc(CN3CCN(CC4CC4)CC3)cc2)cc1 [MMV688125],-4.7
8,c1ccc(Oc2ccc(-c3cncc(-c4ccc5[nH]ccc5c4)n3)cc2)cc1 [MMV688178],-21
9,Cc1nn(C)c(C)c1NS(=O)(=O)c1c(Cl)cc(-c2ccnc(N3CCNCC3)c2)cc1Cl [MMV688180],28
10,C[C@]1(COc2ccc(N3CCC(Oc4ccc(OC(F)(F)F)cc4)CC3)cc2)Cn2cc([N+](=O)[O-])nc2O1 [MMV688262],-1.4
11,COc1ccc(-c2cnc3cnc(-c4cccc(OC(C)C)c4)cn23)cc1 [MMV688270],-8
12,O=C(CN1CCOCC1)Nc1ccc2ncnc(Nc3ccc(OCc4cccc(F)c4)c(Cl)c3)c2c1 [MMV688274],17
13,CC1=Nc2ccc(Cl)cc2C(O)(c2ccc(C)cc2)N1CCN1CCCCC1 (stereo not drawn) [MMV688279],-5
14,COc1ccc(-c2nnc3ccc(-c4cccc(C(C)C)c4)cn23)cc1OC [MMV688313],-27
15,Nc1nc(N)c2c3c(sc2n1)CN(Cc1ccccc1)CC3 [MMV688345],23

# Same assay, conditions: read-out: Inhibition at 5 µM (Mean ± SEM %) TbrCatL 0′
row,Structure (SMILES),inhibition at 5 µM [%]
1,N=C(N)Nc1ccc(-c2ccc(-c3ccc(NC(=N)N)c(Cl)c3)o2)cc1Cl [MMV688271],53 ± 5

# Same assay, conditions: read-out: Inhibition at 5 µM (Mean ± SEM %) TbrCatL 10′ inc
row,Structure (SMILES),inhibition at 5 µM [%]
1,N=C(N)Nc1ccc(-c2ccc(-c3ccc(NC(=N)N)c(Cl)c3)o2)cc1Cl [MMV688271],43 ± 1

# Same assay, conditions: read-out: TbrCatL 0’ Inhibition
row,Structure (SMILES),inhibition at 5 µM [%]
1,N=C(N)Nc1ccc(-c2ccc(-c3ccc(NC(=N)N)c(Cl)c3)o2)cc1Cl [MMV688271],53

# Same assay, conditions: read-out: TbrCatL 10’ Inhibition
row,Structure (SMILES),inhibition at 5 µM [%]
1,N=C(N)Nc1ccc(-c2ccc(-c3ccc(NC(=N)N)c(Cl)c3)o2)cc1Cl [MMV688271],43

# — article PMC9967275, “Screening the Pathogen Box to Discover and Characterize New Cruzain and TbrCatL Inhibitors” (Pathogens, 2023)
